{
  "source": "patent US20220275329A1",
  "about": "“COMPOSITIONS AND METHODS FOR MATURING STEM CELL-DERIVED BETA CELLS” (President and Fellows of Harvard College, priority 2019, published 2022)",
  "key": {"mTORC1 [1]": {"system": "mTORC1", "assay": "p-S6 FACS staining of beta cells in isolated human islets (mTORC1 activation)", "format": "cell-based", "settings": "for effect on mTORC1 activity (p-S6) in mature beta cells: human islets, 30 minute incubation in RPMI", "excerpt": "Insulin-expressing beta cells appear around embryonic day 13.5 (E13.5) in mice and week 8 and 9 post-conception in humans (Pan and Wright, 2011; Slack, 1995), but glucose-stimulated insulin secretion (GSIS) has been observed only days after birth (Blum et al., 2012). Since a major change from embryonic to postnatal physiology is nutrient consumption, it was predicted that nutrients and nutrient sensing by mTORC1 could have a role in the transition from immature to mature insulin secretion by beta cells. To explore that, the nutrient sensitivity and dynamics of mTORC1 in isolated mature human and mouse islets was first examined.\n(§1) Differentiated cell clusters or islets were dispersed into single-cell suspension by incubation in TrypLE Express (Invitrogen) at 37° C. until clusters dissociated to single cells upon mixing by pipetting gently up and down (typically 10-15 min). Cells were spun down for 3 min at 1000 rpm, washed once in PBS (1 mL) and transferred to a 1.7 ml microcentrifuge tube (Bioscience; 11510). Cells were resuspended in perm/fix solution and incubated for 10 min (BD 554714). Cells were then washed once in perm/wash for 15 min (BD 554714).\nCells were then resuspended in perm/wash with primary antibodies and incubated at 4° C. overnight. Primary antibodies, diluted 1:300 unless otherwise noted: Mouse anti-Nkx6.1, rat anti-insulin (pro-)IC-peptide, mouse anti-glucagon, rabbit anti-phospho-S6 Ribosomal Protein (Ser240/244). Cells were washed twice in blocking buffer and then incubated in perm/wash buffer with secondary antibodies for 2 hr (protected from light). Secondary antibodies conjugated to Alexa Fluor 405, 488 or 647 (Life Technologies) were used to visualize primary antibodies. Cells were then washed 3 times in perm/wash solution and finally resuspended in 500-700 μl, filtered through a 40 μm nylon mash into flow cytometry tubes (BD Falcon; 352235), and analyzed using the LSR-II flow cytometer (BD Biosciences) with at least 30,000 events recorded. Analysis of the results was performed using FlowJo software. […]"}, "mTORC1 [2]": {"system": "mTORC1", "assay": "p-S6 FACS staining of beta cells in isolated mouse islets (mTORC1 activation)", "format": "cell-based", "method": "as §1\nCells were then resuspended in perm/wash with primary antibodies and incubated at 4° C. overnight. Primary antibodies, diluted 1:300 unless otherwise noted: Mouse anti-Nkx6.1, rat anti-insulin (pro-)IC-peptide, mouse anti-glucagon, rabbit anti-phospho-S6 Ribosomal Protein (Ser240/244). […] Cells were then washed 3 times in perm/wash solution and finally resuspended in 500-700 μl, filtered through a 40 μm nylon mash into flow cytometry tubes (BD Falcon; 352235), and analyzed using the LSR-II flow cytometer (BD Biosciences) with at least 30,000 events recorded. […]\nFor flow cytometry, mouse islets were dissociated into a single-cell suspension with trypsin/EDTA treatment for 5 minutes at 37° C., followed by treatment with a cell fixation and permeabilization solution (BD Pharmingen). Stained cells were analyzed on a MACSQuant Analyzer (DAKO). […]"}, "mTORC1 [3]": {"system": "mTORC1", "assay": "p-S6 immunostaining of pancreatic islets of fasted mice injected with nutrients", "format": "in vivo, mouse", "settings": "overnight fasted mice, injection", "method": "To assess this, mTORC1 activation was analyzed in the islets of fasted mice upon injection with glucose and/or leucine. […] Alpha cells activate the pathway in the presence of amino acids (likely supplied from autophagy) and the absence of glucose (e.g., during fasting), whereas beta cells activate mTORC1 merely following glucose consumption and insulin secretion during feeding (FIG. 1H).\nTo test the nutrient sensitivity of mTORC1 in beta cells in vivo, glucose was injected into neonates and their pancreata was dissected.\nTissue processing for tissue section staining was performed as previously described {Nir, 2007 #3232}, using the following antibodies: insulin (DakoCytomation), Ki67 (NeoMarkers RM9106S0), Pdx1 (gift from Christopher Wright, Vanderbilt University), Nkx6.1 (β-cell Biology Consortium), Chga (Novus NB120-15160) human p16 (Abcam ab108349 and BD Pharmingen 551153), p21 (Santa Cruz Biotechnology sc-397), Lamp2a (Abcam ab18528), pS6 (Cell Signaling 5364), E-cadherin (BD Pharmingen 610182), Atp5a (Abcam ab14748), Cox17 (Novus NBP1-19696) and Ndufb (Sigma-Aldrich HPA005640). Secondary antibodies were from Jackson ImmunoResearch Laboratories. […] To calculate cell size on tissue sections, the circumference of E-Cadherin-stained cells was determined using Image J Software. >100 cells from 6 mice were scored for each group. […]"}, "mTORC1 [4]": {"system": "mTORC1", "assay": "p-S6 immunostaining of kidney capsule transplants of SC-beta cells in mice injected with nutrients", "format": "in vivo", "settings": "two months after transplantation, fasted recipient mouse, injection", "method": "Having insight into the nutrient sensitivity of mTORC1 in immature and mature beta cells, the next question was whether changing the environment of the SC-beta cells would change mTORC1 sensitivity to nutrients and its dynamics (FIG. 3A). SC-beta cells were collected from the final stage of the differentiation protocol and transplanted into mice for a period of two months, until reaching a stable functional state. […] All animal experiments were performed in accordance with Harvard University […] Animal Care and Use Committee regulations. Cell transplantations into immunodeficient SCID-Beige mice (Jackson Laboratory) were conducted as described previously with minor modifications. SC-beta cell clusters were resuspended in RPMI-1640 medium (Life Technologies; 11875-093), aliquoted into PCR tubes and kept on ice until loading into a catheter for cell delivery under the mouse kidney capsule. Mice were anesthetized with 0.5 ml/25 g 1.25% Avertin/body weight, and the left […] kidney site was shaved and disinfected with betadine and alcohol. A 1 cm incision was made to expose the kidney, followed by insertion of the catheter needle and injection of the cell clusters. […] Wound clips were removed 14 days post-surgery and mice were monitored twice a week. […]"}, "SC-beta cells": {"system": "SC-beta cells", "assay": "Glucose stimulated insulin secretion (GSIS) assay of SC-beta cells", "format": "cell-based, human", "method": "(§2) The hPSC line HUES8 (NIH human embryonic stem cell registry #0021) was used for all experiments. Undifferentiated HUES8 cells were maintained in supplemented mTeSR1 medium (StemCell Technologies) in 500 ml spinner flasks (Coming) set at a 70 rpm rotation rate in a 37° C. 5% CO2 incubator. Directed differentiation into SC-β cells was conducted as described previously with minor modifications. Briefly, 150 million cells were seeded in 300 ml mTeSR1 +10 μM ROCK Inhibitor Y27632, fed with mTeSR1 48 h later, and 72 h later stepwise differentiation stages were induced by the following treatments: DE stage: 24 h in S1 medium +100 ng/ml ActivinA +[…] CHIR99021, followed by 48 h in the same medium without CHIR99021. PGT stage: 72 h in S2 medium +50 ng/ml KGF. PP1 stage: 24 h in S3 medium +50 ng/ml KGF +0.25 μM Sant1 +2 μM Retinoic acid (RA) +500 nM PDBU +10 μM Y27632 +200 nM LDN193189, followed by 24 h in the same medium without LDN193189. PP2 stage: 6 days in S3 medium +50 ng/ml KGF +0.25 uM Sant1 +0.1 μM Retinoic acid (RA) +10 μM Y27632 +5 ng/ml ActivinA. […]\nIslets were isolated from whole pancreata using Collagenase P (Roche) injected to the pancreatic duct followed by Histopaque gradient (Sigma). […] Insulin levels were measured by ELISA (Alpco). […] Normalization was done to β-cell number in each sample (pooled from 4 or more mice) scored by FACS following staining for insulin."}, "mTORC1 [5]": {"system": "mTORC1", "assay": "p-S6 staining of SC-beta cells (mTORC1 activity)", "format": "cell-based, human", "method": "as §2, with “LDN193189.” for “LDN193189. PP2 stage: 6 days in S3 medium +50 ng/ml KGF +0.25 uM Sant1 +0.1 μM Retinoic acid (RA) +10 μM Y27632 +5 ng/ml ActivinA.”\nCells were then resuspended in perm/wash with primary antibodies and incubated at 4° C. overnight. […] Cells were then washed 3 times in perm/wash solution and finally resuspended in 500-700 μl, filtered through a 40 μm nylon mash into flow cytometry tubes (BD Falcon; 352235), and analyzed using the LSR-II flow cytometer (BD Biosciences) with at least 30,000 events recorded. […]"}},
  "note": "Entries after “also recorded” stand apart in the source; their conditions may differ.",
  "data": [
    {"molecule": "CC1=NS(=O)(=O)c2cc(Cl)ccc2N1", "note": "[diazoxide]", "values": [
      {"measurement": "effect on mTORC1 activity (p-S6) in mature beta cells", "setting": "mTORC1 [1]", "result": "inhibits mTORC1 activation; also recorded: dramatically reduces mTORC1 activity in beta cells"},
      {"measurement": "effect on mTORC1 activation (p-S6) in immature beta cells from mice of indicated age", "setting": "mTORC1 [2]; RPMI with glucose and amino acids, 30 minute incubation", "result": "inhibits mTORC1 activation only at P5; also recorded: does not affect mTORC1 activation"}
    ]},
    {"molecule": "Exendin-4", "values": [
      {"measurement": "effect on mTORC1 activity (p-S6) in mature beta cells", "setting": "mTORC1 [1]", "result": "increased"},
      {"measurement": "effect on mTORC1 activity (p-S6) in mature beta cells", "setting": "mTORC1 [1]; listed as exendin4", "result": "strongly activate mTORC1 in beta cells"},
      {"measurement": "effect on mTORC1 activity suppressed by diazoxide in beta cells", "setting": "mTORC1 [1]; in the presence of diazoxide, glucose and amino acids", "result": "rescued"}
    ]},
    {"molecule": "CC(C)C[C@H](N)C(=O)O", "note": "[leucine]", "values": [
      {"measurement": "effect on mTORC1 activity (p-S6) in mature beta cells", "setting": "mTORC1 [1]", "result": "amplifies the response to glucose in beta cells; also recorded: sufficient to fully activate the beta cell mTORC1 pathway in the presence of glucose"},
      {"measurement": "mTORC1 activation (p-S6) in beta cells of adult mice", "setting": "mTORC1 [3]", "result": "not sufficient to activate the pathway"},
      {"measurement": "mTORC1 pathway activation (p-S6) in transplanted SC-beta cells", "setting": "mTORC1 [4]", "result": "remains inactive"}
    ]},
    {"molecule": "CCC(=O)N1CCN(c2ccc(-n3c(=O)ccc4cnc5ccc(-c6cnc7ccccc7c6)cc5c43)cc2C(F)(F)F)CC1", "note": "[Torin1]", "values": [
      {"measurement": "effect on mTORC1 activity (p-S6) in mature beta cells", "setting": "mTORC1 [1]", "result": "inhibited"},
      {"measurement": "GSIS of SC-beta cells grown in indicated conditions", "setting": "SC-beta cells; low (2.8 mM) and high (16.7 mM) glucose for 1 h", "result": "increases their GSIS"},
      {"measurement": "insulin secretion in dynamic GSIS assay", "setting": "SC-beta cells; nonresponsive SC-beta cells treated for 48 hours, low 2.8 mM, high 16.7 mM glucose", "result": "induced insulin secretion in response to glucose"},
      {"measurement": "effect on enhanced mTORC1 signaling (phosphorylation of p-S6) in nonresponsive SC-beta cells", "setting": "mTORC1 [5]; glucose-nonresponsive SC-beta cells", "result": "repressed"},
      {"measurement": "effect on mTORC1 activity (p-S6) of SC-beta cells cultured in a high nutrient environment", "setting": "mTORC1 [5]; rich RPMI media", "result": "repressed"}
    ]},
    {"molecule": "insulin", "values": [
      {"measurement": "effect on mTORC1 activity (p-S6) in mature beta cells", "setting": "mTORC1 [1]", "result": "not mimicked; also recorded: neither stimulation with insulin nor stimulation with insulin and amino acids was able to activate mTORC1 in beta cells"},
      {"measurement": "effect on mTORC1 activation (p-S6) in mouse beta cells", "setting": "mTORC1 [2]; mouse islets, 30 minutes incubation in RPMI with indicated nutrients", "result": "do not affect mTORC1 activation in beta cells"}
    ]}
  ]
}
